Tested on: reuptake of all three monoamines
Assay: monoamine reuptake inhibition profile (summary in words of Table 1)
Type: biochemical, rat
Conditions: with reference to Table 1, sibutramine through its pharmacologically active metabolites

`CC(C)CC(N(C)C)C1(c2ccc(Cl)cc2)CCC1` (stereo not shown) [Sibutramine, N,N-dimethyl-1-[1-(4-chlorophenyl)cyclobutyl]-3-methylbutylamine] was tested, and the “inhibition of monoamine reuptake / selectivity profile” value was “inhibits the reuptake of all three monoamines”.
